Our source for the IC50, Km and Hill slope values is publication PMC2808025 (Current Chemical Genomics, 2009).

Values joined by “and” are separate entries in the source; they are usually repeats but may differ in a detail not shown here. Identical values can stand only once. Like-named read-outs stand apart in the source and are kept apart here.

One assay deals with PAP. To be noted: cited from earlier work.
The next assay addresses T1, human PAP (Homo sapiens, UniProt P15309).
T1 sequence (P15309 33-386): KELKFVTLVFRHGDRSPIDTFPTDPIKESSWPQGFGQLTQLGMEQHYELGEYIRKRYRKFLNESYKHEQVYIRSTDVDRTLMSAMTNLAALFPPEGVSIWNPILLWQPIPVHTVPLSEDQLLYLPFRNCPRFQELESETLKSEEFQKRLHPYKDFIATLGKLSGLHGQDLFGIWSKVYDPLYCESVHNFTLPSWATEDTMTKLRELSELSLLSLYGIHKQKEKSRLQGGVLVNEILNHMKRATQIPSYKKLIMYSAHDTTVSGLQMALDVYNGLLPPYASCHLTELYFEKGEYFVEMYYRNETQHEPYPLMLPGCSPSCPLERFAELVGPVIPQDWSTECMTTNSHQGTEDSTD
The assay is classed as biochemical.

The term IC50 denotes the concentration that gives 50% inhibition. With `O=P(O)(O)C(NCc1ccccc1)c1ccccc1` (stereo not drawn) [BABPA, α-benzylaminobenzylphosphonic acid], the IC50 entry in the assay with PAP (known PAP inhibitor) was “nanomolar range”.

Usually Km stands for the concentration of substrate that gives half-maximal velocity. On to `Cc1cc(=O)oc2c(F)c(OP(=O)(O)O)c(F)cc12` [DiFMUP, difluoro-4-methylumbelliferyl phosphate], for which, on human PAP, the Km is 918 µM.

By Hill slope is commonly meant the slope factor of the fitted curve. As to `O=C([O-])[C@H](O)[C@@H](O)C(=O)[O-].[Na+].[Na+]` [sodium L-(+)-tartrate], at human PAP, the Hill slope is 0.96 and 0.89; the IC50 is 53 µM and 40 µM. Moreover, the IC50 in the assay with PAP (read-out: published IC50) is 29 µM.
